Assays:
[1] = molecular target: MNK1a (Homo sapiens, UniProt Q9BUB5); assay: ELONA binding of biotin-labeled aptamer
Experimental: (§1) FIGS. 5A-5C. Characterization of the interaction of aptamer apMNKQ2 with MNK1 by means of ELONA. (A) ELONAs in which GST-MNKs previously adsorbed in 96-well plates at 0.2 μg/well (3 pmol/well) with apMNKQ2-Bio at 20 nM were incubated (FIG. 5A). The bars represent the mean±SEM of at least 3 independent experiments (*p<0.05, **p<0.01, and ***p<0.001 with respect to the blank and c p<0.05, b p<0.01, and a p<0.001 MNK1b with respect to MNK1a). ELONAs in which concentrations of 0 to 500 nM of apMNKQ2 were incubated (FIGS. 5A and 5C).
(§2) To determine the binding of the aptamers to MNK1a or MNK1b, 200 ng of protein/well diluted in a coating solution (KPL, USA) in a final volume of 100 μL/well were added to a Maxisorp Nunc 96-well ELISA plate (ThermoFisher Scientific, USA). The plate was incubated overnight at 4° C. under stirring. Aptamers were then added at the corresponding concentration according to the assay, in a final volume of 100 μL/well of BSA-free aptamer buffer for 1 hour at 37° C. under stirring. All the aptamers used were labeled with biotin and had been previously denatured at 90° C. for 10 minutes and then kept at 4° C. for 10 minutes in the BSA-free aptamer buffer. To detect the binding of the aptamer to the protein, 100 μL/well of streptavidin-peroxidase (GE Healthcare, United Kingdom) diluted 1/1000 in the aptamer buffer at 37° C. for 1 hour under stirring were added. To develop the plate, 100 μL/well of ABTS solution (Roche, Switzerland) were added, and it was incubated in darkness at room temperature, with measurements being taken every 10 minutes at a wavelength of 405 nm in an Infinite F200 spectrophotometer (TECAN, Switzerland).

[2] = molecular target: MNK1aΔ77 (Homo sapiens, UniProt Q9BUB5); assay: ELONA binding of biotin-labeled aptamer; details: apMNKQ2-Bio at 20 nM, GST-MNK1aΔ77 0.2 μg/well
Experimental: as §1, §2

[3] = molecular target: MNK1b (Homo sapiens, UniProt Q9BUB5); assay: ELONA binding of biotin-labeled aptamer
Experimental: as §1, §2

[4] = molecular target: MNK1ΔCt (Homo sapiens, UniProt Q9BUB5); assay: ELONA binding of biotin-labeled aptamer; details: apMNKQ2-Bio at 20 nM, GST-MNK1ΔCt 0.2 μg/well
Experimental: as §1, §2

[5] = tested on: MNK1; assay: Apta-western with biotin-labeled aptamer; assay type: binding
From the text: FIGS. 6A-6C. Characterization of the interaction of aptamer apMNKQ2 with MNK1 by means of Apta-western. Detection of MNK1a and MNK1b, as well as of the two GST-bound variants MNK1aΔ77 and MNK1ΔCt, with biotin-labeled aptamer apMNKQ2 in electrophoresis (12%) in denaturing conditions (FIG. 6A) and in native conditions (without SDS or β-mercaptoethanol) (FIG. 6B). Quantification of protein levels in relation to MNK1a (*p<0.05 with respect to 1) (FIG. 6C).
In the apta-western assays, the proteins were resolved in polyacrylamide gels in native or denaturing conditions, transferred to PVDF membranes, and incubated with aptamers and streptavidin-peroxidase as indicated above after blocking with 5% PBS-BSA. Finally, the signal was visualized with the chemiluminescence developing system (Clarity Western ECL, BioRad, USA).
On the other hand, apta-western assays were carried out to confirm the affinity of the aptamer apMNKQ2 for proteins MNK1a and MNK1b. To that end, the four constructs used in FIG. 5A were analyzed by electrophoresis, blot, and apta detection. […] This may be due to the fact that the site the aptamer recognizes may not be accessible in all the proteins when they are structured and said site may be exposed as the proteins denature. […] The result is shown in FIG. 6B and quantified in FIG. 6C.

[6] = tested on: MDA-MB-231 cells; assay: Transwell invasion assay with Matrigel; assay type: cell-based, human; details: MDA-MB-231, 400 nM
Experimental: (§3) FIGS. 13A, 13B and 13C. Effect of aptamer apMNKQ2 on the migration and invasion of breast cell lines. The three lines of study were seeded in 6-well plates at a density of 2.5×10^5 cells/well and transfected at 24 hours with apMNKQ2 at the established working concentrations. The cell lines were deprived of serum after 6 hours and collected and re-seeded (4×10^4 cells/well) after 24 hours in a transwell […], in order to perform migration and invasion assays, respectively. At 24 hours, the membranes of the transwell are stained with Hoechst and cells that have gone through the membranes are quantified using fluorescence microscopy (FIG. 13A). The boxes (FIGS. 13B and 13C) represent the mean±the maximum and minimum of 4-5 independent experiments (*p<0.05, **p<0.01, and ***p<0.001 with respect to the control aptamer AT).
(§4) Cell migration and invasion assays were performed using transwell (Corning, USA). […] After that time, they were collected, counted, and reseeded 4×10^4 cells in 300 μl of a serum-free complete medium inside the transwell (migration) or a transwell on which a layer of 100 μL of Matrigel (Corning, USA) (invasion) had previously been polymerized. […] Finally, two washes in PBS were performed, and 5 photographs of each membrane of the transwell were taken using a fluorescence microscope (Olympus IX70). The number of cells was analyzed using the imageJ program. […]

[7] = tested on: MDA-MB-468 cells; assay: Transwell invasion assay with Matrigel; assay type: cell-based, human; details: MDA-MB-468, 50 nM
Experimental: as §3, §4

Sequence of MNK1b (Q9BUB5 1-347 isoform Q9BUB5-3): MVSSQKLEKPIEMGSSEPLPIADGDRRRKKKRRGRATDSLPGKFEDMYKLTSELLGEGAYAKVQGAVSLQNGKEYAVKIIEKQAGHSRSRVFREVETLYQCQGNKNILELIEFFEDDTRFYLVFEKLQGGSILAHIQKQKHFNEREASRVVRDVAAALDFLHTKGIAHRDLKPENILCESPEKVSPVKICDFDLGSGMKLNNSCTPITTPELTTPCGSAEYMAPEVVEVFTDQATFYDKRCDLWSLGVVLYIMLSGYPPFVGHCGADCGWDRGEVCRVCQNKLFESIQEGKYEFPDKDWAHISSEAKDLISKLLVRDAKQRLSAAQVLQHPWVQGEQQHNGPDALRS
Sequence of MNK1a (Q9BUB5 1-424 isoform Q9BUB5-2): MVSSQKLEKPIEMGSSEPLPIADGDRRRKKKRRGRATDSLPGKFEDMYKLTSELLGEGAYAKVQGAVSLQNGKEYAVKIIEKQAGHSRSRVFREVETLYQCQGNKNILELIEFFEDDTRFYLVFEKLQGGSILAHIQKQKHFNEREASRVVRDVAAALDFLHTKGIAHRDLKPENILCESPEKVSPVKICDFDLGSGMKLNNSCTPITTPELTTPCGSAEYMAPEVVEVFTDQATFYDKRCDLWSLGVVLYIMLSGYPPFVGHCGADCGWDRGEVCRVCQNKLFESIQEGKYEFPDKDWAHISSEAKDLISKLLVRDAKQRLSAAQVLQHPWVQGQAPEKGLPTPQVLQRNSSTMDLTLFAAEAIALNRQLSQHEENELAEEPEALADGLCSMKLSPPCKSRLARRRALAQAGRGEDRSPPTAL
Sequence of MNK1ΔCt (Q9BUB5 1-335 isoform Q9BUB5-2 limits assumed): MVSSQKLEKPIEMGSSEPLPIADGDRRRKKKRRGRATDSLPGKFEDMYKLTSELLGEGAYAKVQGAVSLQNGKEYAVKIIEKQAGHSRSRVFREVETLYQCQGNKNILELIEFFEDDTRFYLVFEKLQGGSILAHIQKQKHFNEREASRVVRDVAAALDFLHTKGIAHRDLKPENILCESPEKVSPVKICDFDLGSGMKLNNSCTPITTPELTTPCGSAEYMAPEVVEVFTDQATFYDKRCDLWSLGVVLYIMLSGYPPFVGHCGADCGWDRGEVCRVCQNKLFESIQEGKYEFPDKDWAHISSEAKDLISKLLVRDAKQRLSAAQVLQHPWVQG
Sequence of MNK1aΔ77 (Q9BUB5 1-347 isoform Q9BUB5-2 limits assumed): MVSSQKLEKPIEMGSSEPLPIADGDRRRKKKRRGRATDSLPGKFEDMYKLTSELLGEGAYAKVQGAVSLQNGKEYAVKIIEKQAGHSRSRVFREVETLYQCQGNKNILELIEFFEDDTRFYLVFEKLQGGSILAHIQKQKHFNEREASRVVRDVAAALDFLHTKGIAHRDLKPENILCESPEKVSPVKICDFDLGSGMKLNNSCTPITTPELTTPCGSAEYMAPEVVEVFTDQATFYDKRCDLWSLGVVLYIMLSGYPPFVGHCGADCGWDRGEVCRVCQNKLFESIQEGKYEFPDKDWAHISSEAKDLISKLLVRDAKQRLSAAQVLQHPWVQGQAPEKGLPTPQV

**Q.** Which Kd ([1]; ELONA, biotin-labeled aptamer 0 to 500 nM, GST-MNK1a) does the source give for “5′TGGGGTGGGCGGGCGGGGGTGGGGGTGGT-3′ (DNA, backbone and methylation of C not given here; further chemistry not fully specified) [apMNKQ2]” here?
**A.** The Kd was 66.1 ± 20.2 nM.

**Q.** What about the “binding (ELONA)” value ([1]; apMNKQ2-Bio at 20 nM, GST-MNK1a 0.2 μg/well) of the same substance?
**A.** Its value is “binds significantly”.

**Q.** And the “binding (ELONA)” value [2]?
**A.** Its value is “not significant”.

**Q.** And the Kd ([3]; ELONA, biotin-labeled aptamer 0 to 500 nM, GST-MNK1b)?
**A.** Its Kd is 15.5 ± 2.36 nM.

**Q.** And the “binding (ELONA)” value ([3]; apMNKQ2-Bio at 20 nM, GST-MNK1b 0.2 μg/well)?
**A.** The value was “binds significantly”.

**Q.** What about the “affinity for MNK1b relative to MNK1a” value ([3]; from ELONA KD values) of the same substance?
**A.** Its value is “four-fold higher”.

**Q.** What about the “binding (ELONA)” value [4] of the same substance?
**A.** Its value is “not significant”.

**Q.** What about the “recognition of MNK1a, MNK1b, MNK1aΔ77 and MNK1ΔCt (apta-western)” value ([5]; denaturing conditions) of the same substance?
**A.** Its value is “capable of recognizing and binding to the four isoforms of the protein in a similar manner”.

**Q.** What about the “recognition of MNK1a, MNK1b, MNK1aΔ77 and MNK1ΔCt (apta-western)” value ([5]; native conditions (without SDS or β-mercaptoethanol)) of the same substance?
**A.** The value was “capable of significantly differentiating MNK1b from other isoforms”.

**Q.** What about the “invasion (transwell with Matrigel)” value [6] of the same substance?
**A.** The value was “significant reduction of invasion”.

**Q.** And the “invasion (transwell with Matrigel)” value [7]?
**A.** Its value is “significant reduction of invasion”.

From patent publication US12492403B2, “Aptamers and the use thereof in the treatment of cancer” (FUNDACIÓN PARA LA INVESTIGACIÓN BIOMÉDICA DEL HOSPITAL …, priority 2018, dated 2025)
